Reference: patent US20220175761A1, “BI-LIGAND DRUG CONJUGATE AND USE THEREOF” (COHERENT BIOPHARMA (SUZHOU), LIMITED, priority 2019, published 2022)
Numbered stars: 1 amine (or outer) side, 2 acyl side, 3 side chain; on linkers, the order of the positions; unused ones are H or OH. Bridge positions count the residues as written; N and C are the ends. Square brackets hold non-standard residues; d marks the D form. Peptide text beside a SMILES is read from it. I, II: the chains in the order shown. * marks the point of attachment. ξ: configuration not given here. Hexanoyl(6-succinimido-3yl) = O=C1CC([*:1])C(=O)N1CCCCCC(=O)[*:2]; EuK = O=C(O)CC[C@H](NC(=O)N[C@@H](CCCCN*)C(=O)O)C(=O)O; Dolaproine = CO[C@@H]([C@@H]1CCCN1)[C@@H](C)C(=O)O; Dil = CC[C@H](C)[C@H](NC)[C@@H](CC(=O)O)OC; PABC = O=C(OCc1ccc(N[*:1])cc1)[*:2]; X1 = C[C@@H](N*)[C@@H](O)c1ccccc1; X2 = O=C(Cc1ccc(CN[*:1])cc1)[*:2]; PEG4 = NCCOCCOCCOCCOCCC(=O)O; NMeV = CN[C@H](C(=O)O)C(C)C; ξCit = NC(=O)NCCCC(N)C(=O)O; CO = O=C([*:1])[*:2]; ξV = CC(C)C(N)C(=O)O; Ahx = NCCCCCC(=O)O

Assays:
[1] = test system: HPAF-II (human pancreatic cancer cells); assay: Tumor growth inhibition in subcutaneous xenograft model (CDX); assay type: in vivo, BALB/c-nude mice
Protocol: (§1) Main CDX models: HPAF-II (human pancreatic cancer cells), NCI-H226 (human lung cancer cells) and SCLC-21H (small cell lung cancer cells)
(§2) The cells or tumor tissue mass were prepared and subcutaneously inoculated into the anterior right flank of BALB/c-nude mice. When the tumor volume expanded to 80-160 mm^3, a randomized grouping was performed, and a model control group and administration groups were set. The mice were administrated from the first day of grouping, wherein the administration dose was adjusted according to the latest weight measurement. The mice were administrated via tail vein injection at an administration volume of 10 μl/g. After grouping and administration, the effects of tumor growth and treatment on normal behaviors of animals, specifically including the activity of experimental animals, food intake and drinking status, weight gain or loss status, and other abnormal conditions in eyes, hair, etc., were monitored. After grouping and administration, the weight of mice was measured twice a week to calculate the rate of weight change; at the same time, the long diameter and short diameter of the tumor were measured with a vernier caliper, and the tumor volume, relative tumor proliferation rate, tumor volume inhibition rate and other indicators were calculated. The formula of tumor volume is TV=0.5 a×b^2, wherein a is […] the long diameter of a tumor and b is the short diameter of a tumor.

[2] = test system: NCI-H226 (human lung cancer cells); assay: Inhibition of cell line proliferation, CCK8; assay type: cell-based
Protocol: (§3) Experimental operations: LNCaP, SK-BR-3, NCI-H226, CFPAC-1 and PANC-1 cells were prepared in advance and counted; with a culture medium (IMDM+10% FBS+1× L-Glutamine+1×P/S), the cells LNCaP, SK-BR-3 and CFPAC-1 were diluted to 4×10^4 cells/ml, NCI-H226 was diluted to 2.0×10^4 cells/ml and PANC-1 was diluted to 3.0×10^4 cells/ml; the diluted cell solution was plated in 96-well plates at 100 μl/well; and negative control and blank control wells were set on each plate. After adherent cell culture overnight, the diluted samples to be tested were added at 50 μl/well. The plates were placed in an incubator at 37° C., 5% CO2 and cultured for 68-72 hours. To each well, 15 μl (10% of the liquid volume in a well) of a color developing solution from CCK8 was added; and the plates were incubated at 37° C. for 45-70 minutes and each plate was read at 450 nm on a microplate reader. The data was edited using SoftMax Pro and a 4-P fitting curve was plotted.
Experimental operations: NCI-H226, CFPAC-1 and MDA-MB-468 cells were prepared in advance and counted; MDA-MB-468 and CFPAC-1 cells were plated at a density of 2×10^4 cells/ml (100 μl/well) and NCI-H226 cells were plated at a density of 1×10^4 cells/ml (100 μl/well) in 96-well plates; and negative control and blank control wells were set on each plate. After adherent cell culture overnight, the diluted samples to be tested were added at 50 μl/well. The plates were placed in an incubator at 37° C., 5% CO2 and cultured for 68-72 hours. To each well, 15 μl (10% of the liquid volume in a well) of a color developing solution from CCK8 was added; and the plates were incubated at 37° C. for 45-70 minutes and each plate was read at 450 nm on a microplate reader. The data was edited using SoftMax Pro and a 4-P fitting curve was plotted.

[3] = test system: LNCaP (human prostate cancer cells); assay: Inhibition of cell line proliferation, CCK8; assay type: cell-based; settings: LNCaP; for IC50: 68-72 hours, CCK8
[4] = test system: CFPAC-1 (human pancreatic cancer cells); assay: Inhibition of cell line proliferation, CCK8; assay type: cell-based; settings: for IC50 (MMAE)/IC50 (conjugate): CFPAC-1; for IC50: CFPAC-1, 68-72 hours, CCK8
[5] = test system: SK-BR-3 (human breast cancer cells); assay: Inhibition of cell line proliferation, CCK8; assay type: cell-based; settings: for IC50 (MMAE)/IC50 (conjugate): SK-BR-3; for IC50: SK-BR-3, 68-72 hours, CCK8
Protocol: as §3
(§4) Experimental Operations: LNCaP, SK-BR-3, MDA-MB-468 and CFPAC-1 cells were prepared in advance and counted; with a culture medium (IMDM+10% FBS+1× L-Glutamine+1×P/S), the cells LNCaP, SK-BR-3, MDA-MB-468 and CFPAC-1 were diluted to 4×10^4 cells/ml; the diluted cell solution was plated in 96-well plates at 100 µl/well; and negative control and blank control wells were set on each plate. After adherent cell culture overnight, the diluted samples to be tested were added at 50 μl/well. The plates were placed in an incubator at 37° C., 5% CO2 and cultured for 68-72 hours. To each well, 15 μl (10% of the liquid volume in a well) of a color developing solution from CCK8 was added; and the plates were incubated at 37° C. for 45-70 minutes and each plate was read at 450 nm on a microplate reader. The data was edited using SoftMax Pro and a 4-P fitting curve was plotted.

[6] = test system: PANC-1 (human pancreatic cancer cells); assay: Inhibition of cell line proliferation, CCK8; assay type: cell-based
Protocol: Experimental operations: PANC-1 and CFPAC-1 cells were prepared in advance, counted, and plated in 96-well cell culture plates at a cell density of 4×10^4 cells/ml (100 μl/well); negative control and blank control wells were set on each plate. After adherent cell culture overnight, the diluted samples to be tested were added at 50 μl/well. The plates were placed in an incubator at 37° C., 5% CO2 and cultured for 68-72 hours. To each well, 15 μl (10% of the liquid volume in a well) of a color developing solution from CCK8 was added; and the plates were incubated at 37° C. for 45-70 minutes and each plate was read at 450 nm on a microplate reader. The data was edited using SoftMax Pro and a 4-P fitting curve was plotted.
as §3
as §4, with “Operations: LNCaP, MDA-MB-468, CFPAC-1 and PANC-1” for “Operations: LNCaP, SK-BR-3, MDA-MB-468 and CFPAC-1”, “CFPAC-1 and PANC-1 cells were” for “MDA-MB-468 and CFPAC-1 cells were”, “cells LNCaP, MDA-MB-468 and” for “cells LNCaP, SK-BR-3, MDA-MB-468 and”, “to 4×10^4 cells/ml, and PANC-1 was diluted to 3.0×10^4 cells/ml; the” for “to 4×10^4 cells/ml; the”, “at 100 μl/well; and negative” for “at 100 µl/well; and negative”

[7] = test system: NCI-H226 (human lung cancer cells); assay: Tumor growth inhibition in subcutaneous xenograft model (CDX); assay type: in vivo, BALB/c-nude mice
Protocol: as §1, §2

[8] = test system: SCLC-21H (small cell lung cancer cells); assay: as above; assay type: in vivo, BALB/c-nude mice; settings: SCLC-21H CDX
Protocol: as §1, §2

[9] = test system: MDA-MB-468 (human breast cancer cells); assay: Inhibition of cell line proliferation, CCK8; assay type: cell-based

Question: `CC[C@H](C)[C@@H]([C@@H](CC(=O)N1CCC[C@H]1[C@H](OC)[C@@H](C)C(=O)N[C@H](C)[C@@H](O)c1ccccc1)OC)N(C)C(=O)[C@@H](NC(=O)[C@H](C(C)C)N(C)C(=O)OCc1ccc(NC(=O)C(CCCNC(N)=O)NC(=O)[C@@H](NC(=O)CCCCCN2C(=O)CC(SC[C@@H](NC(=O)CCCCCNC(=O)[C@H](CCCCN)NC(=O)[C@H](CC(=O)O)NC(=O)[C@H](CC(=O)O)NC(=O)Cc3ccc(CNC(=O)NCCCC[C@H](NC(=O)N[C@@H](CCC(=O)O)C(=O)O)C(=O)O)cc3)C(=O)NCCOCCOCCOCCOCCC(=O)N[C@@H](CCCCN)C(=O)N[C@@H](CCC(=O)O)C(=O)N[C@@H](Cc3ccccc3)C(=O)N[C@@H](CC(C)C)C(=O)N[C@@H](Cc3cnc[nH]3)C(=O)N3CCC[C@H]3C(=O)N[C@@H](CO)C(=O)N[C@@H](CCCCN)C(=O)NC(C(=O)N[C@@H](CC(=O)O)C(=O)N[C@@H](CC(C)C)C(=O)N3CCC[C@H]3C(=O)N[C@@H](CCCNC(=N)N)C(=O)O)C(C)C)C2=O)C(C)C)cc1)C(C)C` (stereo partly drawn) [CB-1020] (I: {EuK-CO}-[X2]DDK[Ahx][dC][PEG4]KEFLHPSK[ξV]DLPR-OH / II: V[ξCit][PABC][NMeV]V[Dil][Dolaproine]-X1; linker I:6-II:N via Hexanoyl(6-succinimido-3yl)) was tested. Which “anti-tumor growth effect (in words)” value [1] did it give?
Answer: The value was “obvious anti-tumor growth effect”.

Question: And the “IC50 (MMAE)/IC50 (conjugate)” value ([2]; NCI-H226)?
Answer: The value was 0.00384.

Question: And the IC50 ([2]; NCI-H226, 68-72 hours, CCK8)?
Answer: The IC50 was 1570 nM.

Question: What about the “IC50 ratio (MMAE/conjugate)” value [3] of the same compound?
Answer: Its value is 0.0179.

Question: And the IC50 [3]?
Answer: The IC50 was 168 nM.

Question: What about the “IC50 (MMAE)/IC50 (conjugate)” value [4] of the same compound?
Answer: Its value is 0.005.

Question: And the IC50 [4]?
Answer: The IC50 was 3000 nM.

Question: And the “IC50 (MMAE)/IC50 (conjugate)” value [5]?
Answer: Its value is 0.0070.

Question: What about the IC50 [5] of the same compound?
Answer: Its IC50 is 287 nM.

Question: And the “IC50 (MMAE)/IC50 (conjugate)” value ([6]; PANC-1)?
Answer: The value was 0.0044.

Question: And the IC50 ([6]; PANC-1, 68-72 hours, CCK8)?
Answer: Its IC50 is 458 nM.

Question: Which results are given for `CC[C@H](C)[C@@H]([C@@H](CC(=O)N1CCC[C@H]1[C@H](OC)[C@@H](C)C(=O)N[C@H](C)[C@@H](O)c1ccccc1)OC)N(C)C(=O)[C@@H](NC(=O)[C@H](C(C)C)N(C)C(=O)OCc1ccc(NC(=O)C(CCCNC(N)=O)NC(=O)[C@@H](NC(=O)CCCCCN2C(=O)CC(SC[C@@H](NC(=O)CCCCCNC(=O)[C@H](CCCCN)NC(=O)[C@H](CC(=O)O)NC(=O)[C@H](CC(=O)O)NC(=O)Cc3ccc(CNC(=O)NCCCC[C@H](NC(=O)N[C@@H](CCC(=O)O)C(=O)O)C(=O)O)cc3)C(=O)NCCOCCOCCOCCOCCC(=O)NCCCCC(N[C@@H](Cc3ccc(O)cc3)C(=O)N[C@@H](CO)C(=O)N[C@@H](Cc3c[nH]c4ccccc34)C(=O)N[C@@H](Cc3cnc[nH]3)C(=O)[C@H]3CCC(=O)N3)C(=O)N[C@@H](CC(C)C)C(=O)N[C@@H](CCCNC(=N)N)C(=O)N3CCC[C@H]3C(=O)CN)C2=O)C(C)C)cc1)C(C)C` (stereo partly drawn) [CB-1320]?
Answer: anti-tumor growth effect (in words) [7]: obvious anti-tumor growth effect; anti-tumor growth effect (in words) [8]: obvious anti-tumor growth effect; IC50 ratio (MMAE/conjugate) [3]: 0.043; IC50 [3]: 60 nM; IC50 (MMAE)/IC50 (conjugate) ([9]; MDA-MB-468): 0.011; IC50 ([9]; MDA-MB-468, 68-72 hours, CCK8): 212 nM; IC50 (MMAE)/IC50 (conjugate) [4]: 0.014; IC50 [4]: 1090 nM; IC50 (MMAE)/IC50 (conjugate) [5]: 0.016; IC50 [5]: 93 nM
